These results are taken from ChEMBL document CHEMBL1240318, “Developing a new resource for drug discovery: marine actinomycete bacteria” (2006).

What all share (assay type): functional
In one assay the test system is SK-MEL-5. As to the kind of experiment: Antitumor activity against human SK-MEL-5 cells. The following applies: read-out: LC50 (the source's name).
A further assay has as its system Enterococcus faecium. As to the kind of experiment: Antimicrobial activity against vancomycin-resistant Enterococcus faecium assessed as growth inhibition.
The next assay relates to Staphylococcus aureus. Put plainly: Antimicrobial activity against methicillin-resistant Staphylococcus aureus assessed as growth inhibition.
A further assay relates to Candida albicans. As to the kind of experiment: Antimicrobial activity against amphotericin-resistant Candida albicans.

≈ marks a conversion by molar mass, not a printed value.

With `C\C1=C/C=C/C=C/C=C/c2cccc(O)c2C(=O)O[C@@H](C[C@@H](C)O)C[C@@H](O)C/C=C/[C@@H](O)C[C@@H](O)CC(C)/C=C/C=C/C=C/C=C/c2cccc(O)c2C(=O)O[C@@H](C[C@@H](C)O)C[C@@H](O)C/C=C/[C@@H](O)C[C@@H](O)C1` (some centres undefined) [MARINOMYCIN A], the CC50 in the assay with SK-MEL-5 is 5 nM. Also, the MIC in the assay on Enterococcus faecium and with Staphylococcus aureus was 0.1 µM (≈ 0.101 µg/mL) throughout. Moreover, the MIC90 against Candida albicans was found to be 7.8 µM (≈ 7.89 µg/mL).
